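Following 48 hours of exposure in 96-well plates, responses at five concentrations were used to interpolate endpoints linearly. GI50 marks 50% less growth.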 Calls of active or inactive are those of the source. No stated cut-off is given here; in the data, active = GI50 up to about 1.1 µM and inactive = higher.
Tests used:
Experiment in all cases: DTP human tumour cell line panel, 48 h
SK-MEL-2 = test system: SK-MEL-2
MDA-MB-435 = test system: MDA-MB-435
MDA-N = test system: MDA-N
OVCAR-5 = test system: OVCAR-5
MDA-MB-231 = test system: MDA-MB-231
BT-549 = test system: BT-549
DU-145 = test system: DU-145
786-0 = test system: 786-0
U-251 = test system: U-251
A498 = test system: A498
HCC 2998 = test system: HCC 2998
NCI-H23 = test system: NCI-H23
OVCAR-3 = test system: OVCAR-3
NCI-H522 = test system: NCI-H522
HT-29 = test system: HT-29
HCT-15 = test system: HCT-15
UACC-62 = test system: UACC-62
HOP-62 = test system: HOP-62
OVCAR-8 = test system: OVCAR-8
HL-60 = test system: HL-60

SMILES	GI50 (SK-MEL-2)	GI50 (MDA-MB-435)	GI50 (MDA-N)	GI50 (OVCAR-5)	GI50 (MDA-MB-231)	GI50 (BT-549)	GI50 (DU-145)	GI50 (786-0)	GI50 (U-251)	GI50 (A498)	GI50 (HCC 2998)	GI50 (NCI-H23)	GI50 (OVCAR-3)	GI50 (NCI-H522)	GI50 (HT-29)	GI50 (HCT-15)	GI50 (UACC-62)	GI50 (HOP-62)	GI50 (OVCAR-8)	GI50 (HL-60)
Cn1c(=O)nc2n(CCO)c(-c3ccccc3)c(-c3ccccc3)nc-2c1=O	> 100 µM (inactive)	> 100 µM (inactive)	> 100 µM (inactive)	> 100 µM (inactive)	> 100 µM (inactive)	> 100 µM (inactive)	> 100 µM (inactive)	> 100 µM (inactive)	> 100 µM (inactive)	> 100 µM (inactive)	> 100 µM (inactive)	> 100 µM (inactive)	> 100 µM (inactive)	> 100 µM (inactive)	> 100 µM (inactive)	> 100 µM	> 100 µM (inactive)	> 100 µM (inactive)	> 100 µM (inactive)	
O=C1CC(NC(=O)C(F)(F)F)c2c(Br)sc(N3CCNCC3)c21 (stereo unspecified)	13.2 µM (inactive)	> 100 µM (inactive)	> 100 µM (inactive)	> 100 µM (inactive)	> 100 µM (inactive)	> 100 µM (inactive)	> 100 µM (inactive)	> 100 µM (inactive)	> 100 µM (inactive)	> 100 µM (inactive)	> 100 µM (inactive)	> 100 µM (inactive)	> 100 µM (inactive)	> 100 µM (inactive)	85.7 µM (inactive)	> 100 µM	> 100 µM (inactive)		> 100 µM (inactive)	> 100 µM (inactive)
O=C(/C(Cl)=C/c1ccccc1)c1ccccc1	13.1 µM (inactive)	3.01 µM (inactive)	1.86 µM (inactive)	4.42 µM (inactive)	5.6 µM (inactive)	2.22 µM (inactive)	6.32 µM (inactive)	1.53 µM (inactive)	4.27 µM (inactive)	20.6 µM (inactive)	6.68 µM (inactive)	11.1 µM (inactive)	2.21 µM (inactive)	1.58 µM (inactive)	1.46 µM (inactive)	2.47 µM	8.55 µM (inactive)	19.2 µM (inactive)	2.84 µM (inactive)	
CCOC(=O)[C@@H](NC(=O)OC(C)(C)C)[C@@H](O)C(=O)OCC	> 100 µM (inactive)	> 100 µM (inactive)	> 100 µM (inactive)	> 100 µM (inactive)	> 100 µM (inactive)	> 100 µM (inactive)	> 100 µM (inactive)	> 100 µM (inactive)	> 100 µM (inactive)	69.5 µM (inactive)	62.8 µM (inactive)	> 100 µM (inactive)	> 100 µM (inactive)		> 100 µM (inactive)	> 100 µM	> 100 µM (inactive)	> 100 µM (inactive)	> 100 µM (inactive)	> 100 µM (inactive)
